Test results as given in PMC7251097, “Aspartate/asparagine-β-hydroxylase: a high-throughput mass spectrometric assay for discovery of small molecule inhibitors” (Scientific Reports, 2020).
Where “and” joins values, the source holds several entries; their conditions need not be identical. Equal entries are not always repeated. Structures can show the parent of a compound that is named as a salt. Where two headings read alike, the source gives them in different places.

Columns and labels:
His6-AspH315-758 (AspH) = target: T1, His6-AspH315-758 (AspH) (Homo sapiens, UniProt Q12797); assay: Differential scanning fluorimetry (DSF) assay, shift of AspH melting temperature; format: binding; settings: 20 μM inhibitor, 2 μM AspH, 50 μM NiCl2, with respect to DMSO controls, n = 2, mean ± SD
T1 construct: freshly thawed His6-AspH315-758 was added; made in house; host or cells: E. coli BL21 (DE3), pET-28a(+) vector
T1 sequence (Q12797 315-758): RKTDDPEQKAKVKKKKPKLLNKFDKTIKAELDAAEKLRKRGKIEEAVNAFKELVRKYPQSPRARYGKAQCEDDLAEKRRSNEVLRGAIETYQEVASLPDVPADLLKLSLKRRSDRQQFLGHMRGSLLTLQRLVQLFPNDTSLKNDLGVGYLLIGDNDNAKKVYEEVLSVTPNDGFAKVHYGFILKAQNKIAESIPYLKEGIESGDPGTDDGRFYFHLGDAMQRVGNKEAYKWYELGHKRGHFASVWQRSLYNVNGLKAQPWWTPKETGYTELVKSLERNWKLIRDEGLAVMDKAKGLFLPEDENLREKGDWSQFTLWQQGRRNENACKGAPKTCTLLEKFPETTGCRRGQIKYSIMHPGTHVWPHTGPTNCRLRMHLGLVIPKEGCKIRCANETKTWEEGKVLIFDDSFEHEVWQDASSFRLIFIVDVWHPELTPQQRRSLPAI

[1] = target: T2, His6-AspH315–758 (human aspartate/asparagine-β-hydroxylase, AspH) (Homo sapiens, UniProt Q12797); assay: SPE-MS AspH inhibition assay (LOPAC screen at fixed 20 μM and IC50 dose-response), hydroxylation of cyclic peptide hFX-CP101–119; format: biochemical
T2 construct: N-Terminally His6-tagged human AspH315–758 (His6-AspH315–758) was produced in E. coli BL21 (DE3) cells; made in house; host or cells: E. coli BL21 (DE3), pET-28a(+) vector
T2 sequence (Q12797 315-758): T1 sequence (Q12797 315-758)

[2] = LOPAC Plate 4, compound at 20 uM, substrate conversion
[3] = LOPAC compound at fixed 20 uM, plate 1, normalised to DMSO and 2,4-PDCA controls
[4] = LOPAC compound at fixed 20 uM, substrate conversion, plate 1
[5] = 50 nM His6-AspH315–758, 1.0 μM hFX-CP101–119, 3 μM 2OG, 2 μM Fe(II), 50 mM HEPES pH 7.5, 20 °C, mean ± SD, n = 2 (2,4-PDCA n = 10), read-out: IC50
[6] = LOPAC Plate 4, compound at 20 uM, read-out: % inhibition
[7] = read-out: Plate 2 (% inhibition)
[8] = LOPAC compound at 20uM, plate 2, conversion of substrate peptide
[9] = LOPAC compound at 20uM, plate 2, normalised to DMSO and 2,4-PDCA controls, read-out: Plate 2 (% inhibition)
[10] = LOPAC compound at 20uM, plate 3, conversion of substrate peptide
[11] = LOPAC compound at 20uM, plate 2, normalised to DMSO and 2,4-PDCA controls
[12] = LOPAC Plate 4, compound at 20 uM

## O=C(O)c1ccc(O)c2ncccc12 [IOX1]
His6-AspH315-758 (AspH)
  Tm-shift (ΔTm) of AspH melting temperature [°C]: 2.8 ± 0.2 °C and ~ 2.8 °C

## O=C(O)c1ccnc(C(=O)O)c1 [2,4-PDCA, pyridine-2,4-dicarboxylic acid]
His6-AspH315-758 (AspH); read-out: Tm-shift (ΔTm) of AspH melting temperature [°C]
  ΔTm at 20 µM: 3.5 ± 0.6 °C

## CC[C@H]1OC(=O)[C@H](C)[C@@H](O[C@H]2C[C@@](C)(OC)[C@@H](O)[C@H](C)O2)[C@H](C)[C@@H](O[C@@H]2O[C@H](C)C[C@H](N(C)C)[C@H]2O)[C@](C)(O)C[C@@H](C)CN(C)[C@H](C)[C@@H](O)[C@]1(C)O [Azithromycin]
[1]; plate 5 (Pfitzer), test compounds at fixed 20 μM
  Plate 5 (% inhibition): -3.13%
[1]; plate 5 (Pfitzer), test compounds at fixed 20 μM, mean conversion DMSO 32.88
  Plate 5 (% conversion): 37.38%

## O=C(CCCN1CCC(O)(c2cccc(C(F)(F)F)c2)CC1)c1ccc(F)cc1 [Trifluperidol hydrochloride]
[1]; [2]
  % conversion: 30.59%

## CC(=O)Oc1ccccc1C(=O)O [Acetylsalicylic acid]
[1]; [3]
  Plate 1 (% inhibition): -0.51%
[1]; [4]
  Plate 1 (% conversion): 36.04%

## Cc1c(O)c(=O)ccn1C [Deferiprone, reference compound]
[1]; [5]
  IC50: 4.89 ± 0.37 µM

## O=C(O)c1cccnc1C(=O)O [Quinolinic acid]
[1]; [2]
  % conversion: 7.93%
[1]; [6]
  inhibition at 20 µM: 83.6%

## CN1CC[C@@]2(C)c3cc(OC(=O)Nc4ccccc4)ccc3N(C)[C@@H]12 [Phenserine]
[1]
  Plate 2 (% conversion): 38.49%
[1]; [7]
  inhibition at 20 µM: -7.56%

## NCCCCNCCCN [Spermidine trihydrochloride]
[1]; [2]
  % conversion: 36.29%
[1]; [6]
  inhibition at 20 µM: 0.53%

## N[C@H](C(=O)O)[C@H](Cc1ccccc1)C(=O)O [L-Beta-threo-benzyl-aspartate]
[1]; [2]
  % conversion: 30.62%

## N#CC(C#N)=Cc1ccc(O)c(O)c1 [Tyrphostin 23, reference compound]
[1]; AspH activity, fixed compound concentration 20 μM, initial LOPAC screen, 0.5%v/v DMSO, read-out: Inhibition at 20 µM [%]
  inhibition at 20 µM: 98.7%
[1]; [2]
  % conversion: 2.79%
[1]; [6]
  inhibition at 20 µM: 98.7%

## CC(C)(C)NCC(O)c1ccccc1Cl (stereo not drawn) [Tulobuterol hydrochloride]
[1]; [2]
  % conversion: 41.18%
[1]; [6]
  inhibition at 20 µM: -13.8%

## CNCCCC1c2ccccc2C=Cc2ccccc21 [Protriptyline hydrochloride]
[1]; [2]
  % conversion: 29.36%
[1]; [6]
  inhibition at 20 µM: 20.8%

## OCCN1CCN(CC/C=C2/c3ccccc3Sc3ccc(C(F)(F)F)cc32)CC1 [cis-(Z)-Flupenthixol dihydrochloride]
[1]; [8]
  Plate 2 (% conversion): 67.44%
[1]; [9]
  inhibition at 20 µM: -94%

## C[C@@H](O)[C@H]1C(=O)N2C(C(=O)O)=C(SCCN=CN)C[C@H]12 [Imipenem monohydrate]
[1]; [3]
  Plate 1 (% inhibition): 6.01%
[1]; [4]
  Plate 1 (% conversion): 33.85%

## CC(C)(C)c1ccc(C(O)CCCN2CCC(C(O)(c3ccccc3)c3ccccc3)CC2)cc1 (stereo not drawn) [Terfenadine]
[1]; [2]
  % conversion: 45.15%
[1]; [6]
  inhibition at 20 µM: -25.4%

## N=C(N)c1ccc(OCCCCCOc2ccc(C(=N)N)cc2)cc1 [Pentamidine isethionate]
[1]; [10]
  Plate 3 (% conversion): 37.75%

## CC(C)Cn1c(=O)n(C)c(=O)c2[nH]cnc21 [3-Isobutyl-1-methylxanthine]
[1]
  Plate 3 (% conversion): 38.13%

## CN[C@@H]1C[C@@H](c2ccc(Cl)c(Cl)c2)c2ccccc21 [Indatraline hydrochloride]
[1]
  Plate 3 (% conversion): 41.79%

## Cc1cc2c(s1)Nc1ccccc1N=C2N1CCN(C)CC1 [Olanzapine]
[1]
  % conversion: 42.51%
  inhibition at 20 µM: -17.7%

## NCCCCN=C(N)N [Agmatine sulfate]
[1]
  Plate 1 (% conversion): 36.66%
[1]; [3]
  Plate 1 (% inhibition): -2.35%

## NC(=O)OCC(COC(N)=O)c1ccccc1 [Felbamate]
[1]; [8]
  Plate 2 (% conversion): 34.68%
[1]; [9]
  inhibition at 20 µM: 3.82%

## Cc1nnc(SCC2=C(C(=O)O)N3C(=O)[C@@H](NC(=O)Cn4cnnn4)[C@H]3SC2)s1 [Cefazolin sodium]
[1]; [3]
  Plate 1 (% inhibition): 9.95%
[1]; [4]
  Plate 1 (% conversion): 32.53%

## CN(C)C(N)=NCCC[C@H](N)C(=O)O.Cl [N^G,N^G-Dimethylarginine hydrochloride]
[1]; [8]
  Plate 2 (% conversion): 37.98%
[1]; [11]
  Plate 2 (% inhibition): -6.05%

## Cc1oncc1C(=O)Nc1ccc(C(F)(F)F)cc1 [Leflunomide]
[1]; [10]
  Plate 3 (% conversion): 37.93%

## Cl.O=C(CCCCCN1CCN(c2ccccc2-c2ccccc2)CC1)NC1CCCc2ccccc21 (stereo not drawn) [LP 12 hydrochloride hydrate]
[1]; [12]
  % inhibition: -43.43%
[1]; [2]
  % conversion: 51.29%

## CCN(CC)C(=O)c1ccc(O)c(OC)c1 [Vanillic acid diethylamide]
[1]; [8]
  Plate 2 (% conversion): 35.22%
[1]; [11]
  Plate 2 (% inhibition): 2.19%

## COc1nc(C)nc(Cl)c1NC1=NCCN1.Cl [Moxonidine hydrochloride]
[1]; [10]
  Plate 3 (% conversion): 33.12%

## COCCOc1cc2nc[nH]c(=O)c2cc1OCCOC [CP-380736]
[1]
  Plate 1 (% conversion): 40.54%
  Plate 1 (% inhibition): -13.90%
  Plate 5 (% conversion): 31.91%
  Plate 5 (% inhibition): 12.94%

## CCCCCCCCCCC/C=C\C(C)(C)/C=C\CCCC(=O)O [7,7-Dimethyl-(5Z,8Z)-eicosadienoic acid]
[1]; [8]
  Plate 2 (% conversion): 5.42%
[1]; [11]
  Plate 2 (% inhibition): 91.20%

## O=C(O)CNC(=O)c1c(O)c2ccccc2n(OCC2CC2)c1=O [Desidustat, desidustat, reference compound]
[1]; IC50 [μM]
  IC50: 16.3 ± 0.44 µM

## CCN(CC)CCn1c(=O)c(Cc2ccc(OC)cc2)nc2ccccc21.Cl [Caroverine hydrochloride]
[1]; [2]
  % conversion: 34.53%

## CCN(CC)CCCC(C)Nc1ccnc2cc(Cl)ccc12 (stereo not drawn) [Chloroquine diphosphate]
[1]
  Plate 1 (% conversion): 38.59%
  Plate 1 (% inhibition): -8.09%

## CN1[C@@H]2CC[C@H]1C[C@@H](OC(c1ccccc1)c1ccccc1N)C2 (stereo partly drawn) [Aminobenztropine]
[1]
  Plate 1 (% conversion): 38.12%
[1]; [3]
  Plate 1 (% inhibition): -6.68%

## C[N+](C)(C)CCCCCC[N+](C)(C)C [Hexamethonium bromide]
[1]
  Plate 2 (% conversion): 40.56%
[1]; [7]
  inhibition at 20 µM: -13.8%

## CN(C)S(=O)(=O)c1ccc2c(c1)/C(=C/c1cc3c([nH]1)CCCC3)C(=O)N2 [SU 6656]
[1]; [2]
  % conversion: 31.14%
[1]; [6]
  inhibition at 20 µM: 15.6%

## Nc1nc(N)c2nc(CNc3ccc(C(=O)N[C@@H](CCC(=O)O)C(=O)O)cc3)cnc2n1 [Aminopterin]
[1]
  Plate 1 (% conversion): 36.60%
[1]; [3]
  Plate 1 (% inhibition): -2.16%

## OC[C@H]1NC[C@H](O)[C@@H](O)[C@@H]1O [1-Deoxynojirimycin hydrochloride]
[1]; [7]
  inhibition at 20 µM: 2.25%

## CC(CCc1ccc(O)cc1)NCCc1ccc(O)c(O)c1 (stereo not drawn) [Dobutamine hydrochloride]
[1]; [8]
  Plate 2 (% conversion): 8.47%
[1]; [9]
  inhibition at 20 µM: 82.1%

## CN=c1nc(-c2ccccc2)n(-c2ccccc2)s1 [SCH-202676, reference compound]
[1]; 50 nM His6-AspH315–758, 1.0 μM hFX-CP101–119, 3 μM 2OG, 2 μM Fe(II), 50 mM HEPES pH 7.5, 20 °C, mean ± SD, n = 2 (2,4-PDCA n = 10), listed as C00007, read-out: IC50
  IC50: 0.51 ± 0.08 µM
[1]; [5]
  IC50: ~0.5 µM
[1]; AspH activity, fixed compound concentration 20 μM, initial LOPAC screen, 0.5%v/v DMSO
  Inhibition at 20 µM [%]: 100.6%
[1]; [12]
  % inhibition: 100.56%
[1]; [2]
  % conversion: 2.15%

## COc1ccc(C(CN(C)C)C2(O)CCCCC2)cc1 (stereo not drawn) [Venlafaxine hydrochloride]
[1]
  Plate 2 (% conversion): 36.45%
[1]; [7]
  inhibition at 20 µM: -1.48%
